# Laboratory results reported in paper PMC9573353 (Molecules, 2022).
# Read-outs that look alike come from different tables or passages of the source.
# Legend:
# [1] = biological target: butyrylcholinesterase (BChE) (Equus caballus, UniProt P81908); experiment: biochemical; assay type: biochemical; details: mean ± standard deviation, triplicate
# [2] = previously tested; read-out: DPPH IC50; cited from earlier work
# [3] = biological target: Acetylcholinesterase (AChE) (Electrophorus electricus, UniProt O42275); experiment: biochemical; assay type: biochemical; details: mean ± standard deviation, triplicate; '-' = no inhibitory activity
# [4] = Fe3+ complex formation constants by spectrophotometric titration (PSEQUAD); assay type: physicochemical; details: for Apparent formation constant lgK'FeL, Fe^3+ + HL ⇌ FeL^2+ + H^+: 1:1 complex; for Formation constant lgKFeL, Fe^3+ + L^− ⇌ FeL^2+: sum of apparent formation constant and protonation constant
# Protocol: Since Fe^3+ ions strongly hydrolyze, acidic solutions were applied for the spectrophotometric titrations to determine the complex formation constants. Both types of titrations were carried out: increasing the iron(III) concentration at constant ligand concentration and increasing ligand concentration at constant CFe(III).
# (§1) The third one in this equilibrium system must be a complex between the previous two species. Detailed fitting studies by application of the PSEQUAD program confirmed the existence of a complex with a 1:1 (FeL^2+) composition. Furthermore, the apparent formation constant of these species (for the reaction Fe^3+ + HL ⇌ FeL^2+ + H^+) and the individual spectrum of the species could be estimated by this procedure. […] The apparent formation constant determined from this spectrum series and that regarding the titration with the ligand was lgK’FeL = 4.75 ± 0.10. Using this apparent formation constant, the molar fractions of the free Fe^3+ and the 1:1 complex could be calculated as functions of the (protonated) ligand concentration (pHL), as shown by the inset of Figure 12a. Since the spectrophotometric titration was carried out in an acidic solution, in order to estimate the formation constant for the Fe^3+ + L^− ⇌ FeL^2+ reaction, the protonation constant of the deprotonated ligand (L^−) was also determined (by potentiometric titration, starting from the fully deprotonated form at pH = 10, Figure 13), lgK1 = 7.81 ± 0.15. The sum of the apparent formation constant and the protonation constant gives the equilibrium constant regarding the reaction above (lgKFeL = 12.56 ± 0.15).
# (§2) The protonation and complex formation constants were determined similarly for the other three compounds. The corresponding figures can be found in the Supplementary Materials (Figures S67 and S68 for cis-2, Figures S69 and S70 for cis-4, and Figures S71 and S72 for trans-1). In the case of trans-1, two protonation steps were observed due to the two OH groups. For calculating the formation constant, lgK2 was taken into account, corresponding to the proton in the OH group on the pyranone ring. This can be exchanged by the Fe^3+ ion easier than the other proton in the phenolic moiety.
# Two titration series were used to determine the stability constants of equilibrium systems containing Fe^3+ and ligand. The iron(III) content was increased at constant ligand content, the ligand concentration was increased at constant Fe(III) content, and the spectral changes were recorded with a Specord S600 spectrophotometer (Analytic Jena GmbH, Jena, Germany) in the 190–900 nm wavelength range. […] The two series were evaluated together using PSEQUAD software in the 210–430 nm range.
# [5] = DPPH radical scavenging assay; details: 30 min at 25 °C; '-' = did not capture the radical
# Protocol: Antioxidant activity of the tested compounds was measured in terms of hydrogen donating or radical scavenging ability using the stable radical 2,2′-diphenyl-1-picrylhydrazyl (DPPH). The 50 μL of various concentrations of tested solutions (5 μM–1000 μM) were placed in a cuvette, 1 mL of ethanolic solution of DPPH was added, and the final DPPH concentration was kept constant (c = 8 × 10^−4 M). The mixture was incubated for 30 min at 25 °C. […] All determinations were performed in triplicate. The concentrations of tested compounds were expressed as final concentrations. Inhibition of DPPH expressed in percentage was calculated according to the equation:(2) Inhibition (%)=AC(0)−AC(t)/AC(0)·100 where AC(0) is the absorbance of the control at t = 0 min, and AC(t) is the absorbance of the antioxidant at t = 30 min. Data were used to calculate the IC50 value by a nonlinear fit of compound concentration values vs. inhibition percentage.
# [6] = Protonation constants by potentiometric titration with spectrophotometric detection; assay type: physicochemical; details: for Protonation constant lgK1: titration from pH 10, for trans-1 first of two protonation steps
# Excerpt: as §1, §2
# A 0.01–0.01 M phosphate–borate–acetate buffer solution was used for potentiometric titration. A 50 cm^3 beaker was filled with 25 cm^3 of buffer solution containing the appropriate amount of ligand, and the pH was adjusted to 10.0 by adding 2 M NaOH solution. The pH was determined using a Consort C3010 multi-parameter analyzer (Consort bvba, Turnhout, Belgium) equipped with a combined glass electrode. The solution was circulated with an IKA PA-SF (IKA Labortechnik, Staufen, Germany) peristaltic pump through a Hellma (176.000-QS 10 mm) flow through the cuvette. Titration was carried out with 6 M H2SO4 solution. The spectra were recorded with a Specord S600 spectrophotometer after pH stabilization.
# Sequence of Acetylcholinesterase (AChE) (O42275 24-633): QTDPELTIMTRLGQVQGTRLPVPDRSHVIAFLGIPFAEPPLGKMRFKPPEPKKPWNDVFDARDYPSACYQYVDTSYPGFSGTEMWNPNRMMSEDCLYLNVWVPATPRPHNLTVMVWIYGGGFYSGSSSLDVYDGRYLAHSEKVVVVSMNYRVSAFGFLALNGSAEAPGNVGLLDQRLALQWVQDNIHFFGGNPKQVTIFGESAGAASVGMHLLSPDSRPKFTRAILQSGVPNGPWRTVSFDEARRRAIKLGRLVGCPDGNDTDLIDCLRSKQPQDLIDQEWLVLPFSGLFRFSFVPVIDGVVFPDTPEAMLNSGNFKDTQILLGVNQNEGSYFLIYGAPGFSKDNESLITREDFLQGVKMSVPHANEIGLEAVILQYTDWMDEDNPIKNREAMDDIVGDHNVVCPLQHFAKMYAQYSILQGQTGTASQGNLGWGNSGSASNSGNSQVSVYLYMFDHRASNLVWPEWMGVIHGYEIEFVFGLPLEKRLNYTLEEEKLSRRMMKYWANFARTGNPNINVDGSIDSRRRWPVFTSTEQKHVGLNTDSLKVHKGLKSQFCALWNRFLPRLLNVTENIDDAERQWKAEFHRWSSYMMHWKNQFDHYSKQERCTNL
# Sequence of butyrylcholinesterase (BChE) (P81908 whole entry): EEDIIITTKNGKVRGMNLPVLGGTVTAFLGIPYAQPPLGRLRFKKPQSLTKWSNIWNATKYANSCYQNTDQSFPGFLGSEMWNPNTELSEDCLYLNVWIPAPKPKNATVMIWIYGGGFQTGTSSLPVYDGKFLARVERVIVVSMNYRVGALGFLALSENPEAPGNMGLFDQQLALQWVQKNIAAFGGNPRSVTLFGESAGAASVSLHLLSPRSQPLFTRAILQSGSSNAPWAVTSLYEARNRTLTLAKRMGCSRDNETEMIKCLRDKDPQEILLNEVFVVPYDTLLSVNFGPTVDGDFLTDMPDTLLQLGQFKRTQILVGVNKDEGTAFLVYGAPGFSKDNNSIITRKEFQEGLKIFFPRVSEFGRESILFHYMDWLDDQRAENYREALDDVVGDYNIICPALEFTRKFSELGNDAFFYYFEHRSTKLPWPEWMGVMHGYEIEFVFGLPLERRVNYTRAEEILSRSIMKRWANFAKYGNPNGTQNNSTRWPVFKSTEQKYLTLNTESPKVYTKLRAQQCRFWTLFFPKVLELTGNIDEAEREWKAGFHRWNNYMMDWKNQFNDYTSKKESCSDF
smiles,measurement,setting,value
Oc1ccc(/C=C/c2cccs2)c(O)c1 [III],IC50,[1],5.3 ± 1.8 µM
same,IC50,[2],26.8 µM
same,IC50,[3],46.6 ± 8.3 µM
Oc1ccccc1/C=C/c1cccs1 [II],IC50,[1],4.6 ± 0.1 µM
same,IC50,[2],159 µM
same,IC50,[3],15.7 ± 1 µM
"O=c1cc(/C=C\c2ccccc2C(F)(F)F)occ1O [cis-2, (Z)-5-hydroxy-2-(2-(trifluoromethyl)styryl)-4H-pyran-4-one]",IC50,[1],458 ± 30.2 µM
same,"Apparent formation constant lgK'FeL, Fe^3+ + HL ⇌ FeL^2+ + H^+",[4]; acidic solution,4.38 ± 0.20
same,IC50,[3],> 1000 µM
same,IC50,[5],> 1000 µM
same,Protonation constant lgK1,[6],7.95 ± 0.10
"O=c1cc(/C=C\c2ccc(Cl)cc2Cl)occ1O [cis-4, (Z)-2-(2,4-dichlorostyryl)-5-hydroxy-4H-pyran-4-one]",IC50,[1],638 ± 25.8 µM
same,"Apparent formation constant lgK'FeL, Fe^3+ + HL ⇌ FeL^2+ + H^+",[4]; acidic solution,4.16 ± 0.10
same,"Formation constant lgKFeL, Fe^3+ + L^− ⇌ FeL^2+",[4],12.15 ± 0.15
same,IC50,[3],1000 ± 10.1 µM
same,IC50,[5],> 1000 µM
same,Protonation constant lgK1,[6],7.99 ± 0.15
"O=c1cc(C=Cc2cccs2)occ1O [compound 7, 5-hydroxy-2-(2-(thiophen-2-yl)vinyl)-4H-pyran-4-one]",BChE IC50,[1],completely missed any tested bioactivity
same,AChE IC50,[3],completely missed any tested bioactivity
same,DPPH IC50,[5],completely missed any tested bioactivity
"O=c1cc(/C=C/c2ccccc2O)occ1O [trans-1, (E)-5-hydroxy-2-(2-hydroxystyryl)-4H-pyran-4-one]",IC50,[1],601 ± 34.5 µM
same,"Formation constant lgKFeHL, Fe^3+ + H2L ⇌ FeHL^2+ + H^+","[4]; acidic solution, footnote a",4.38 ± 0.20 ^a
same,"Formation constant lgKFeHL, Fe^3+ + HL^− ⇌ FeHL^2+","[4]; calculated with lgK2, footnote b",11.6 ± 0.2 ^b
same,IC50,[3],> 1000 µM
same,IC50,[5],251 ± 45.6 µM
same,Protonation constant lgK1,[6],8.9 ± 0.20
same,Protonation constant lgK2,[6]; trans-1: proton of the OH group on the pyranone ring,7.25 ± 0.20
"O=c1cc(/C=C/c2ccsc2)occ1O [trans-6, (E)-5-hydroxy-2-(2-(thiophen-3-yl)vinyl)-4H-pyran-4-one]",IC50,[1],426 ± 41.8 µM
same,"Apparent formation constant lgK'FeL, Fe^3+ + HL ⇌ FeL^2+ + H^+",[4]; acidic solution,4.75 ± 0.10
same,"Formation constant lgKFeL, Fe^3+ + L^− ⇌ FeL^2+",[4],12.56 ± 0.15
same,IC50,[3],> 1000 µM
same,IC50,[5],> 1000 µM
same,Protonation constant lgK1,[6],7.81 ± 0.15
